Data as given in publication PMC7866087, “Evaluation of Computationally Designed Peptides against TWEAK, a Cytokine of the Tumour Necrosis Factor Ligand Family” (International Journal of Molecular Sciences, 2021).
“And” between values parts separate entries of the source, which are not always exact repeats. Equal entries are not always repeated. No end group written: not given here.

Tests used:
[1] = test system: TWEAK-Fn14 signalling pathway, BRV5 cells; assay: Cell-based screening of individual peptides, gene expression microarray in TWEAK-stimulated BRV5 cells; design: species or system human; settings: 6 h; for BIRC2 mRNA expression (normalized to NARS2) / HSP90B1 mRNA expression (normalized to NARS2) / IL6 mRNA expression (normalized to NARS2) / JUN mRNA expression (normalized to NARS2) / MAP4K4 mRNA expression (normalized to NARS2) / MAPK14 mRNA expression (normalized to NARS2) / NFKB2 mRNA expression (normalized to NARS2) / TNFRSF12A mRNA expression (normalized to NARS2) / TRAF2 mRNA expression (normalized to NARS2): 450 µM
Text: Pool 1 and 5 were therefore deconstructed to assess the effect of individual peptides and their activity on same cell-based screening. Pools 1 and 5 were composed of peptides 45, 46, 42, 3, 49, 11, and 13; and of peptides 1, 9, 30, 35, 41, 43, 7, and 14, respectively. As before, and shown in Figure 4B, the level of expression of probe genes on TWEAK-stimulated (T) BRV5 cells is overall higher than on non-stimulated (NT) one. […] The structural model of peptides 43, 30, 35 and 49 bound to TWEAK can be seen in Figure 5 and Supplementary Materials Figures S4–S6, respectively.
Three different cell lines were used in this study: BRV5, MDA-MB 435 (435-P), and HT29. The BRV5 is a highly metastatic brain cell line, obtained in one of our laboratories by primary culture from a brain of a nude mouse inoculated with human 435-Br1 brain metastatic cells, as previously described and used as a model to test the peptides in cell cultures. […] The triple negative 435-P cell line is a useful human breast cancer model that expresses both epithelial and melanocytic markers, and was included as the parental cell from which 435-Br1 metastatic variant was initially originated (both cell lines kindly provided by Dr Fabra at IDIBELL Institute, Hospitalet de Llobregat, Spain). Finally, HT29 human colon carcinoma cells obtained from the European Type Culture Collection (ECACC 91072201) were used as a positive control of TWEAK dependent Fn14 over-expressing cells to evaluate TWEAK-Fn14 axis of brain metastatic variants.
Appropriate cell culture conditions were established as the controls needed in the expression of genes with and without peptides and with and without TWEAK activation, both as pools and individually (see Supplementary Materials Figure S2). The protocol started with the seeding of 125,000 cells/well in 500 µL of culture media supplemented with 10% fetal bovine serum (CM+FBS10%) in 24-well dishes for 24 h before removing FBS (CM-FBS). After overnight starvation in CM-FBS culture, different peptide treatment conditions (at final concentration of 450 µM) were established in the presence or absence of TWEAK (25 ng/mL final concentration) (Peprotech EC, Ltd., London, UK). Some cells were treated with peptides at a single, unique, initial dose (time 0) while other were treated with repeated doses to account for the effect cell-culture degradation. These include a repeated treatment every hour (i.e., […]), every two hours (time 0, 2, and 4) and every three hours (time 0 and 3)—see Supplementary Materials Figure S2 for diagrammatic depiction. At time 6 (after six hours) cells were lysed and RNA extracted for transcriptomic analyses (see next). Cell were culture for six hours as this was the time needed to achieve the highest upregulation of the TWEAK-Fn14 axis upon TWEAK treatment as shown in previous time-course RT-PCR experiments (see Figure 2).
RNA from cells was extracted 6 h after treatments by direct lysis on the well. The RNeasy Micro kit (Qiagen, Hilden, Germany) was used to isolate total RNA from cell lysate following manufacturer’s protocols including an additional step of digestion with DNase I (Qiagen, Hilden, Germany). Total RNA concentration was measured in a NanoDrop 1000 spectrophotometer (Thermo Scientific, Waltham, MA, USA). The RNA extracted from treated and untreated cells (see above) was used as a proxy for gene expression.
The quantitative RT-PCR was performed using Fluidigm Dynamic Array FlexSix array with the specific primers for gene expression (Delta Genes Assays, Wet lab tested on Dynamic Array IFC) designed to RefSeq for detection by pPCR EvaGreen assay (Dynamic Array FlexSix, Fluidigm Corporation). Each Flex Six IFC has a total of six independent partitions. Each partition has a 12 × 12 format (12 assay inlets and 12 sample inlets) and will be run independently as a separate experimental run. […]

[2] = Precipitation in SPR running buffer; format: physicochemical; settings: running buffer HBS-EP pH 7.4, 6.25 µM to 800 µM, 25 °C
Protocol: (§1) After chip validation, peptides selected on our cell-based microarray screening were tested.
Binding assays were performed at 25 °C in a Biacore 3000 instrument (GE Healthcare, Uppsala, Sweden) using nitrilotriacetic (NTA) sensor chips (GE Healthcare) and HBS-EP (0.01 M HEPES pH 7.4, 0.15 M NaCl, 3 mM EDTA, 0.005 % v/v Surfactant P20) as running buffer. Histidine-tagged human TWEAK (His6-TWEAK) protein (R&D Systems, Minneapolis, MN, USA) was covalently immobilized on the sensor surface using a capture coupling method. Briefly, the NTA surface was first stabilized by injection of regeneration buffer (20 μL EDTA-containing running buffer at 20 μL/min) followed by Ni^2+ binding to the surface (40 μL of 500 μM NiCl2 in running buffer at 20 μL/min). The carboxymethyl dextran surface was then activated for primary amine coupling by injecting coupling solution (30 μL of a 1:1 N-hydroxysuccinimide (NHS)/1-ethyl-3-[3-(dimethylamino)-propyl]carbodiimide hydrochloride (EDC) mixture at 5 μL/min). […]
Binding experiments using a monoclonal anti-TWEAK antibody (Abcam ref. 199405, Cambridge, UK) were run to ascertain adequate functionalization of the immobilized surface. […] The dissociation phase was monitored for 10 min at the same flow rate and followed by a regeneration step with 10 µL of 18 mM NaOH. […]

[3] = target: T1, human His6-TWEAK protein (Homo sapiens, UniProt O43508); assay: SPR binding of peptides to immobilized His6-TWEAK; settings: 25 °C, 1:1 Langmuir global fit, representative of at least three independent experiments
T1 construct: purchased R&D Systems
T1 sequence (O43508 97-249 limits assumed): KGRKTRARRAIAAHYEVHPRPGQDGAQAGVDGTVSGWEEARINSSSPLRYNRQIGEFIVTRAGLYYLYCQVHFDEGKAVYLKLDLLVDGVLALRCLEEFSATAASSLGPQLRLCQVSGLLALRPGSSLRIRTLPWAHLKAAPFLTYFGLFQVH
Text: SPR biosensor interaction analysis, a label-free screening approach, was used for real-time monitoring of the kinetics and affinity of peptide hits to TWEAK previously identified by cell-based screening. Peptides from pools 1 and 5 were selected both as positive (49, 30, 35 and 43) and negative hits (1 and 42). For our purposes, TWEAK was chosen as ligand, while peptides were chosen as analytes and passed across ligand-derivatized surface. Nitrilotriacetic acid-coated sensor chips (NTA chip) and a coupling approach that results in the capture of a His6-protein in a non-random orientation by the His6 epitope prior to direct free amine-based covalent coupling was used for histidine-tagged TWEAK immobilization.
as §1
For each titration, a zero-analyte surface as a control was subtracted from test sensorgram as well as non-specific binding to the blank flow cell without protein; and the chip surface was regenerated in order to remove any remaining analyte. The black curves show the experimental data, while the overlaid red lines represent a global fit of the entire data set to a 1:1 Langmurian interaction model. The fitting process provided both kinetic association and dissociation rate constants (Ka and Kd), as well as equilibrium dissociation constant (KD) values indicated in Figure 6.
Binding assays were performed at 25 °C in a Biacore 3000 instrument (GE Healthcare, Uppsala, Sweden) using nitrilotriacetic (NTA) sensor chips (GE Healthcare) and HBS-EP (0.01 M HEPES pH 7.4, 0.15 M NaCl, 3 mM EDTA, 0.005 % v/v Surfactant P20) as running buffer. Histidine-tagged human TWEAK (His6-TWEAK) protein (R&D Systems, Minneapolis, MN, USA) was covalently immobilized on the sensor surface using a capture coupling method. Briefly, the NTA surface was first stabilized by injection of regeneration buffer (20 μL EDTA-containing running buffer at 20 μL/min) followed by Ni^2+ binding to the surface (40 μL of 500 μM NiCl2 in running buffer at 20 μL/min). The carboxymethyl dextran surface was then activated for primary amine coupling by injecting coupling solution (30 μL of a 1:1 N-hydroxysuccinimide (NHS)/1-ethyl-3-[3-(dimethylamino)-propyl]carbodiimide hydrochloride (EDC) mixture at 5 μL/min). His6-TWEAK protein in pH 7.4 running buffer was then injected over the surface (60 μL of 10 μg/mL His6-TWEAK at 5 μL/min). To block uncoupled primary amines on the sensor surface, ethanolamine was passed over the surface (35 μL 1M ethanolamine at 5 μL/min). Ligand surfaces were finally conditioned with a 20 µL injection of regeneration solution containing 350 mM EDTA at 20 μL/min. Immobilization levels ranged from 1500 to 7000 resonance units (RUimmob) to test different ligand densities. A blank flow cell on the chip was created by simple injection of 20 μL of regeneration buffer injected over the sensor surface.
Binding experiments using a monoclonal anti-TWEAK antibody (Abcam ref. 199405, Cambridge, UK) were run to ascertain adequate functionalization of the immobilized surface. Selected synthetic TWEAK-Fn14 inhibitory peptides at two-fold serial dilutions from 800 µM to 0 µM in running buffer were flown over the chip for 5 min at 35 µL/min. The dissociation phase was monitored for 10 min at the same flow rate and followed by a regeneration step with 10 µL of 18 mM NaOH. Specific binding responses for each channel were obtained by double referencing; subtracting non-specific binding to the blank flow cell plus an internal reference standard, namely buffer injection response. Each sample was run in triplicate. The experimental data were fitted to a 1:1 Langmuir binding model by the BIAevaluation software version 4.1 (GE Healthcare, Uppsala, Sweden).

[4] = individual peptides, BRV5 + TWEAK, mean of replicate columns
[5] = individual peptides, BRV5 + TWEAK, replicate column 1
[6] = individual peptides, BRV5 + TWEAK, replicate column 2
[7] = individual peptides, BRV5 + TWEAK, normalized to NARS2, listed as P30

## 30: DNGGGNTDIYSE [Peptide 30]
[1]; BRV5 + TWEAK 25 ng/mL, peptides 450 µM
  regulation of probe genes by individual peptides: lowest overall expression across all genes
[1]; [4]
  BIRC2 mRNA expression (normalized to NARS2): 0.4705
  HSP90B1 mRNA expression (normalized to NARS2): 1.723
  IL6 mRNA expression (normalized to NARS2): 0.001837
  JUN mRNA expression (normalized to NARS2): 0.05309
  MAP4K4 mRNA expression (normalized to NARS2): 0.1227
  MAPK14 mRNA expression (normalized to NARS2): 0.1367
  NFKB2 mRNA expression (normalized to NARS2): 0.02657
  TNFRSF12A mRNA expression (normalized to NARS2): 0.01074
  TRAF2 mRNA expression (normalized to NARS2): 0.01042
[1]; [5]
  BIRC2 mRNA expression (normalized to NARS2): 0.46
  HSP90B1 mRNA expression (normalized to NARS2): 1.5246
  IL6 mRNA expression (normalized to NARS2): 0.001779
  JUN mRNA expression (normalized to NARS2): 0.05111
  MAP4K4 mRNA expression (normalized to NARS2): 0.1133
  MAPK14 mRNA expression (normalized to NARS2): 0.1336
  NFKB2 mRNA expression (normalized to NARS2): 0.02493
  TNFRSF12A mRNA expression (normalized to NARS2): 0.00974
  TRAF2 mRNA expression (normalized to NARS2): 0.009779
[1]; [6]
  BIRC2 mRNA expression (normalized to NARS2): 0.481
  HSP90B1 mRNA expression (normalized to NARS2): 1.9206
  IL6 mRNA expression (normalized to NARS2): 0.001894
  JUN mRNA expression (normalized to NARS2): 0.05506
  MAP4K4 mRNA expression (normalized to NARS2): 0.1321
  MAPK14 mRNA expression (normalized to NARS2): 0.1398
  NFKB2 mRNA expression (normalized to NARS2): 0.02821
  TNFRSF12A mRNA expression (normalized to NARS2): 0.01174
  TRAF2 mRNA expression (normalized to NARS2): 0.01106
[1]; [7]
  BIRC2 expression Z-Score: -0.6095
  HSP90B1 expression Z-Score: -0.9208
  IL6 expression Z-Score: -0.0450 and -0.04503
  JUN expression Z-Score: -0.5095
  MAP4K4 expression Z-Score: -1.5551 and -1.555
  MAPK14 expression Z-Score: -1.1124 and -1.112
  NFKB2 expression Z-Score: -1.3232 and -1.323
  TNFRSF12A expression Z-Score: -1.112
  TRAF2 expression Z-Score: -0.4386
[2]
  precipitation: precipitated at all concentrations tested

## TTDGSTGDDLQA-NH2 [Peptide 43]
[3]; HBS-EP pH 7.4, Biacore 3000, NTA chip, read-out: ka
  kon: 20.5 M⁻¹ s⁻¹
[3]; figure 6, HBS-EP pH 7.4, 6.25 µM to 800 µM peptide
  Kd: 173 µM
